Results: patent publication US11434242B2, “Dopamine-b-hydroxylase inhibitors” (BIAL-PORTELA & Cª, S.A., priority 2017, dated 2022)

Molecular target: T1, Dopamine beta hydroxylase (Homo sapiens, UniProt P09172)
T1 construct: 125 μl of plasma; tissue Instituto Português do Sangue Transplantação; host or cells: human plasma from healthy donors
T1 sequence (P09172 40-617 limits assumed): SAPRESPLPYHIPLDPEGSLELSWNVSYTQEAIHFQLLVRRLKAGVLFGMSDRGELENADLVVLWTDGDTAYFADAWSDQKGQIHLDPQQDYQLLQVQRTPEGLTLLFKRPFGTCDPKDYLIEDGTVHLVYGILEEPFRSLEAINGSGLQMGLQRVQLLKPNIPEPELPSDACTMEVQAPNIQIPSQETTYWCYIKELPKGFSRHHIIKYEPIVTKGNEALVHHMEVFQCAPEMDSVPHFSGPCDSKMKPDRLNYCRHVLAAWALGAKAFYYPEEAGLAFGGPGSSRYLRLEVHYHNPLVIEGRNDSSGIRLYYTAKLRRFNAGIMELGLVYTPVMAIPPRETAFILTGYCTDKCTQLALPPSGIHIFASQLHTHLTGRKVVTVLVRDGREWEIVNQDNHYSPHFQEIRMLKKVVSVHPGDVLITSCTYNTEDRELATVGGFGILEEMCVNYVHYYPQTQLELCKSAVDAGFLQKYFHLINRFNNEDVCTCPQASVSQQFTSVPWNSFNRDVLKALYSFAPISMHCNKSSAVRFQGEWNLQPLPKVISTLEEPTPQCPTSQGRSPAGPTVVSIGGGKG
Assay: Dopamine beta hydroxylase activity in human plasma
Format: biochemical
Details: for Plasma (0.01 μM), activity in % of control: inhibitor 0.01 μM; for Plasma (0.1 μM), activity in % of control: inhibitor 0.1 μM
Summary of the method: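 Octopamine production from tyramine over 45 min at 37° C, measured photometrically at 330 nm after SCX extraction and periodate oxidation against an octopamine standard curve, indicates plasma DβH activity. Compounds tested at final 10, 100 and 1000 nM in human plasma, pH 5.0 cofactor buffer, 10 min preincubation; results as % of control.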

| Plasma (0.01 μM), activity in % of control | Plasma (0.1 μM), activity in % of control | SMILES |
| --- | --- | --- |
| 52.5 % of control | 8.5 % of control | CN(C(=O)Cc1c2n(c(=S)n1C)C[C@@]1(c3cc(Cl)ccc3F)C[C@@H]21)C1CCOCC1 [Example 434, 2-((5aS,6aR)-5a-(5-chloro-2-fluorophenyl)-2-methyl-3-thioxo-2,3,5,5a,6,6a-hexahydrocyclopropa[3,4]pyrrolo[1,2-c]imidazol-1-yl)-N-methyl-N-(tetrahydro-2H-pyran-4-yl)acetamide] |
| 66.5 % of control | 36.6 % of control | CN(C(=O)Cc1c2n(c(=S)n1C)C[C@H](c1c(F)ccc(F)c1F)C2)C1COC1 [Example 435, (S)—N-methyl-2-(2-methyl-3-thioxo-6-(2,3,6-trifluorophenyl)-2,5,6,7-tetrahydro-3H-pyrrolo[1,2-c]imidazol-1-yl)-N-(oxetan-3-yl)acetamide] |
| 73.6 % of control | 23.9 % of control | Cn1c(CC(=O)N2CCOCC2)c2n(c1=S)C[C@@]1(c3cc(Br)ccc3F)C[C@@H]21 [Example 436, 2-((5aS,6aR)-5a-(5-bromo-2-fluorophenyl)-2-methyl-3-thioxo-2,3,5,5a,6,6a-hexahydrocyclopropa[3,4]pyrrolo[1,2-c]imidazol-1-yl)-1-morpholinoethan-1-one] |
| 62.7 % of control | 6.1 % of control | Cn1c(CC(=O)NC2COC2)c2n(c1=S)C[C@@]1(c3cc(Br)ccc3F)C[C@@H]21 [Example 437, 2-((5aS,6aR)-5a-(5-bromo-2-fluorophenyl)-2-methyl-3-thioxo-2,3,5,5a,6,6a-hexahydrocyclopropa[3,4]pyrrolo[1,2-c]imidazol-1-yl)-N-(oxetan-3-yl)acetamide] |
| 64.0 % of control | 7.5 % of control | CN(C(=O)Cc1c2n(c(=S)n1C)C[C@@]1(c3cc(Br)ccc3F)C[C@@H]21)C1COC1 [Example 438, 2-((5aS,6aR)-5a-(5-bromo-2-fluorophenyl)-2-methyl-3-thioxo-2,3,5,5a,6,6a-hexahydrocyclopropa[3,4]pyrrolo[1,2-c]imidazol-1-yl)-N-methyl-N-(oxetan-3-yl)acetamide] |
| 67.2 % of control | 11.8 % of control | CN(C(=O)Cc1c2n(c(=S)n1C)C[C@@]1(c3cc(Br)ccc3F)C[C@@H]21)C1CCOCC1 [Example 439, 2-((5aS,6aR)-5a-(5-bromo-2-fluorophenyl)-2-methyl-3-thioxo-2,3,5,5a,6,6a-hexahydrocyclopropa[3,4]pyrrolo[1,2-c]imidazol-1-yl)-N-methyl-N-(tetrahydro-2H-pyran-4-yl)acetamide] |
| 57.2 % of control | 8.4 % of control | CN(C(=O)Cc1c2n(c(=S)n1C)C[C@@]1(c3cc(Br)ccc3F)C[C@@H]21)C1CCOC1 (stereo partly drawn) [Example 440, 2-((5aS,6aR)-5a-(5-bromo-2-fluorophenyl)-2-methyl-3-thioxo-2,3,5,5a,6,6a-hexahydrocyclopropa[3,4]pyrrolo[1,2-c]imidazol-1-yl)-N-methyl-N-(tetrahydrofuran-3-yl)acetamide] |
| 72.8 % of control | 37.4 % of control | CN(C(=O)Cc1c2n(c(=S)n1C)C[C@@]1(c3cc(Cl)ccc3F)C[C@@H]21)C1CCOC1 (stereo partly drawn) [Example 441, 2-((5aS,6aR)-5a-(5-chloro-2-fluorophenyl)-2-methyl-3-thioxo-2,3,5,5a,6,6a-hexahydrocyclopropa[3,4]pyrrolo[1,2-c]imidazol-1-yl)-N-methyl-N-(tetrahydrofuran-3-yl)acetamide] |
| 43.6 % of control | 10.0 % of control | CN(C(=O)Cc1c2n(c(=S)n1C)C[C@@]1(c3c(F)ccc(Cl)c3F)C[C@@H]21)C1CCOC1 (stereo partly drawn) [Example 442, 2-((5aS,6aR)-5a-(3-chloro-2,6-difluorophenyl)-2-methyl-3-thioxo-2,3,5,5a,6,6a-hexahydrocyclopropa[3,4]pyrrolo[1,2-c]imidazol-1-yl)-N-methyl-N-(tetrahydrofuran-3-yl)acetamide] |
| 59.2 % of control | 11.5 % of control | CN(C(=O)Cc1c2n(c(=S)n1C)C[C@@]1(c3c(F)ccc(Cl)c3F)C[C@@H]21)C1CCOCC1 [Example 443, 2-((5aS,6aR)-5a-(3-chloro-2,6-difluorophenyl)-2-methyl-3-thioxo-2,3,5,5a,6,6a-hexahydrocyclopropa[3,4]pyrrolo[1,2-c]imidazol-1-yl)-N-methyl-N-(tetrahydro-2H-pyran-4-yl)acetamide] |
| 73.5 % of control | 57.7 % of control | Cn1c(CC(=O)N2CCCO2)c2n(c1=S)C[C@H](c1c(F)ccc(Cl)c1F)C2 [Example 444, (S)-2-(6-(3-chloro-2,6-difluorophenyl)-2-methyl-3-thioxo-2,5,6,7-tetrahydro-3H-pyrrolo[1,2-c]imidazol-1-yl)-1-(isoxazolidin-2-yl)ethan-1-one] |
| 95.1 % of control | 73.7 % of control | Cn1c(CC(=O)N2CCOCC2)c2n(c1=S)C[C@@H](c1c(F)cccc1F)C2 [Example 445, (R)-2-(6-(2,6-difluorophenyl)-2-methyl-3-thioxo-2,5,6,7-tetrahydro-3H-pyrrolo[1,2-c]imidazol-1-yl)-1-morpholinoethan-1-one] |
| 83.0 % of control | 62.9 % of control | Cn1c(CC(=O)N[C@@H]2CCOC2)c2n(c1=S)C[C@@H](c1c(F)cccc1F)C2 [Example 446, 2-((R)-6-(2,6-difluorophenyl)-2-methyl-3-thioxo-2,5,6,7-tetrahydro-3H-pyrrolo[1,2-c]imidazol-1-yl)-N—((R)-tetrahydrofuran-3-yl)acetamide] |
| 94.4 % of control | 33.2 % of control | Cn1c(CC(=O)NC2CCOCC2)c2n(c1=S)C[C@@H](c1c(F)cccc1F)C2 [Example 447, (R)-2-(6-(2,6-difluorophenyl)-2-methyl-3-thioxo-2,5,6,7-tetrahydro-3H-pyrrolo[1,2-c]imidazol-1-yl)-N-(tetrahydro-2H-pyran-4-yl)acetamide] |
| 93.3 % of control | 65.3 % of control | CN(C(=O)Cc1c2n(c(=S)n1C)C[C@@H](c1c(F)cccc1F)C2)C1COC1 [Example 448, (R)-2-(6-(2,6-difluorophenyl)-2-methyl-3-thioxo-2,5,6,7-tetrahydro-3H-pyrrolo[1,2-c]imidazol-1-yl)-N-methyl-N-(oxetan-3-yl)acetamide] |
| 27.8 % of control | 2.3 % of control | CN1C[C@@H](NC(=O)Cc2c3n(c(=S)n2C)C[C@H](c2c(F)ccc(Br)c2F)C3)CC1=O [Example 449, 2-((S)-6-(3-bromo-2,6-difluorophenyl)-2-methyl-3-thioxo-2,5,6,7-tetrahydro-3H-pyrrolo[1,2-c]imidazol-1-yl)-N—((S)-1-methyl-5-oxopyrrolidin-3-yl)acetamide] |
| 32.6 % of control | 2.3 % of control | Cn1c(CC(=O)N2CC[C@H](C#N)C2)c2n(c1=S)C[C@H](c1c(F)ccc(Br)c1F)C2 [Example 450, (S)-1-(2-((S)-6-(3-bromo-2,6-difluorophenyl)-2-methyl-3-thioxo-2,5,6,7-tetrahydro-3H-pyrrolo[1,2-c]imidazol-1-yl)acetyl)pyrrolidine-3-carbonitrile] |
| 39.8 % of control | 5.5 % of control | CN(C(=O)Cc1c2n(c(=S)n1C)C[C@H](c1c(F)ccc(Br)c1F)C2)[C@@H]1CCOC1 [Example 451, 2-((S)-6-(3-bromo-2,6-difluorophenyl)-2-methyl-3-thioxo-2,5,6,7-tetrahydro-3H-pyrrolo[1,2-c]imidazol-1-yl)-N-methyl-N—((R)-tetrahydrofuran-3-yl)acetamide] |
| 49.6 % of control | 12.8 % of control | CN(C)C(=O)C1CCN(C(=O)Cc2c3n(c(=S)n2C)C[C@H](c2c(F)ccc(Br)c2F)C3)CC1 [Example 452, (S)-1-(2-(6-(3-bromo-2,6-difluorophenyl)-2-methyl-3-thioxo-2,5,6,7-tetrahydro-3H-pyrrolo[1,2-c]imidazol-1-yl)acetyl)-N,N-dimethylpiperidine-4-carboxamide] |
| 56.6 % of control | 10.4 % of control | CN(C)C(=O)C1CCN(C(=O)Cc2c3n(c(=S)n2C)C[C@H](c2c(F)ccc(Br)c2F)C3)C1 (stereo partly drawn) [Example 453, 1-(2-((S)-6-(3-bromo-2,6-difluorophenyl)-2-methyl-3-thioxo-2,5,6,7-tetrahydro-3H-pyrrolo[1,2-c]imidazol-1-yl)acetyl)-N,N-dimethylpyrrolidine-3-carboxamide] |
